This is an account of results in PubChem BioAssay AID588780 (Sanford-Burnham Center for Chemical Genomics, 2011).

The structures appear in SMILES notation. Active and inactive are the calls of the source.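 Rule for the calls: active = compounds whose fitted half-maximal concentration in the cell-protection dose series is at or below a set limit; inactive = the rest.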

The assay has as its system H9c2 cardiomyocytes, 2-deoxyglucose stress, ATP luminescence, 2 h. Kind of assay: protection of cardiomyocytes from 2-deoxyglucose injury, dose response, cell-based, 2-deoxyglucose stress, uHTS hits (AID 588780).
Consider `CCOC(=O)c1nc(Nc2ccc(C(C)=O)cc2)c2ccccc2n1`, for which the IC50 is 18.9 µM.
`O=c1c(O)c(-c2ccccc2)oc2cc(O)ccc12`: the IC50 was > 79 µM (inactive).
The figure for `CCOC(=O)N1CCN(C(=O)CSc2nc3ccccc3c(=O)n2-c2ccccc2)CC1` is 33.6 µM (inactive); for `CC(C)c1ccc(S(=O)(=O)N2CCN(CC(=O)c3ccc(O)c(O)c3)CC2)cc1` it is 21.3 µM; for `Cc1cc(-n2c(C)cc(C(=O)COc3ccc4ccc(=O)oc4c3)c2C)no1` it is > 79 µM (inactive).
With `COc1ccc(-c2cc(=O)oc3c(C)c(O)c(CN(C)C)cc23)cc1`, the IC50 was > 79 µM (inactive).
Next, `O=C(Oc1cccc2c(=O)[nH]ccc12)c1ccccc1`: 9.07 µM; `CCn1c(=O)c(C(=O)NC(C)c2ccccc2)c(O)c2ccccc21` (stereo not given): > 79 µM (inactive).
Turning to `CCOC(=O)C1CCN(c2cc3c(cc2NC(=O)c2ccccc2Br)n(C)c(=O)n3C)CC1`, the IC50 is 45.5 µM (inactive).
For the compound `Cc1ccc(N2C(=O)CS/C2=C(\C(Cl)=C(Cl)Cl)[N+](=O)[O-])cc1`, the IC50 was > 79 µM (inactive).
With `COc1cc(-c2nnc(-c3cc(-c4ccccc4)nc4ccccc34)o2)cc(OC)c1OC`, the IC50 is 5.22 µM.
As for `O=C(CSc1nnc(-c2ccccc2)n1Cc1ccccc1)NNC(=O)c1ccccc1O`, the IC50 was > 79 µM (inactive).
The figure for `COc1cccc(-c2cnc3c(NC=O)cc(-c4cc(OC)c(OC)c(OC)c4)cn23)c1` is > 79 µM (inactive).
Next, `CC1(C(=O)Nc2cccc(OC(F)(F)F)c2)Cc2c(-c3ccc(C(N)=O)cc3)ccnc2O1` (stereo not given): > 79 µM (inactive); `CCOc1ccccc1Nc1nnc(SCc2nnc(-c3cc(OC)c(OC)c(OC)c3)o2)s1`: 11.1 µM; `C[C@@H]1CN([C@@H](C)CO)C(=O)c2cc(NC(=O)Nc3ccccc3)ccc2O[C@H]1CN(C)C(=O)Nc1cccc2ccccc12`: 15.8 µM.
For the compound `Cc1ccccc1NP(=O)(Oc1ccccc1F)Oc1ccccc1F`, the IC50 was 24.8 µM.
The figure for `COc1ccc(Cl)cc1NC(=O)CN(C)C(=O)CCc1nc2ccccc2c(=O)[nH]1` is > 79 µM (inactive); for `O=C(COC(=O)c1cc(-c2cccnc2)nc2ccccc12)Nc1ccc(F)cc1F` it is 23.2 µM.
The figure for `Cc1nc(NC(=O)c2cc3c(C)nn(-c4ccccc4)c3s2)sc1C(=O)Nc1ccccc1` is > 79 µM (inactive); for `CC(C)(C)OC(=O)C[C@@H]1C/C=C\C[C@@H](CC(=O)N[C@@H](CO)Cc2ccccc2)C(=O)NC[C@@H](c2ccccc2)OC1=O` it is 11.9 µM; for `CCOC(=O)COc1ccc2c3c(c(=O)oc2c1)CCCC3` it is > 79 µM (inactive).
Next, `CC1Nc2ncnc(N3CCN(c4ccccc4)CC3)c2N(Cc2ccc(Br)cc2)C1=O` (stereo not given): > 79 µM (inactive); `COc1cc(-c2cc(NC=O)c3ncc(-c4ccccc4)n3c2)cc(OC)c1OC`: > 79 µM (inactive); `CCN(CC(=O)Nc1c(F)cccc1F)C(=O)Cc1n[nH]c(=O)c2ccccc12`: > 79 µM (inactive).
On to `O=C1Nc2ccccc2C(=O)C1(Cl)Cc1ccccc1` (stereo not given), for which the IC50 was > 79 µM (inactive).
Next, `O=c1[nH]nc(CNc2ccc(C(F)(F)F)cc2)c2ccccc12`: 15.1 µM; `O=C(CCc1nc2ccccc2c(=O)[nH]1)Nc1ccc(N2CCCCC2)cc1`: 19.8 µM.
The figure for `COc1cc(-c2cc3nc(NCCOc4ccccc4)ccn3n2)cc(OC)c1OC` is 13.9 µM; for `Cc1ccccc1NC(=O)COc1cccc2c1CCNC2=O` it is > 79 µM (inactive); for `COCCN1CCN(c2c3c(nc4cc(-c5cccc(F)c5)nn24)CCC3)CC1` it is 60.1 µM (inactive).
Turning to `CC(=O)OCc1nc2sc(C)c(C)c2c(=O)[nH]1`, the IC50 was > 79 µM (inactive).
The figure for `CC(=O)c1cccc(-c2cnc3c(NC=O)cc(-c4cccc(C(=O)N(C)C)c4)cn23)c1` is 19.5 µM.
The figure for `COc1ccc(COc2cc(-c3cccc(OC)c3)nc3ccc(NC(=O)c4cccnc4)cc23)cc1` is > 79 µM (inactive).
The figure for `COc1cccc(/C=N/NC(=O)c2[nH]c(C)c(C(=O)N/N=C/c3cccc(OC)c3)c2C)c1` is 11.9 µM; for `CC(C)(C)C(=O)Nc1ccc(C(=O)N/N=C/c2ccccc2OC(=O)c2ccccc2)cc1` it is > 79 µM (inactive); for `COc1ccc2[nH]c(=O)c(CNC3CCCCC3)cc2c1` it is > 79 µM (inactive).
For the compound `O=C1NC(c2cccs2)Nc2ccccc21` (stereo not given), the IC50 was > 79 µM (inactive).
Next, `O=C(NCC1CCCO1)C(c1ccc(F)cc1)N(C(=O)Cn1nnc(-c2ccc(F)cc2)n1)c1cccc(O)c1` (stereo not given): 13.1 µM.
The figure for `O=c1c(O)c(-c2cccs2)oc2ccc(Cl)cc12` is 20.6 µM; for `Cc1cccc(NC(=O)c2nc[nH]c2C(=O)NCCCCNC(=O)c2[nH]cnc2C(=O)Nc2cccc(C)c2)c1` it is > 79 µM (inactive); for `Cn1c2ccccc2c(=O)c2ccc(NCc3ccc4c(c3)OCO4)cc21` it is 8.06 µM.
In the case of `Oc1c(Br)cc(Br)cc1C=NCc1ccc(F)cc1`, the IC50 is > 79 µM (inactive).
`CS(=O)(=O)Nc1ccc(-c2ccc3nccn3c2)cc1`: the IC50 is > 79 µM (inactive).
The figure for `COc1cc2c(cc1OC)CN(CC(=O)Nc1ccccc1C#N)CC2` is 44.1 µM (inactive); for `O=C(CCc1nc2ccccc2c(=O)[nH]1)NCc1ccco1` it is > 79 µM (inactive); for `CN(C)C(=O)C1C2NC(=S)N(c3cccc(Cl)c3)C1(C)Oc1ccc(Cl)cc12` (stereo not given) it is 66.7 µM (inactive).
The figure for `O=C(Nc1cc(=O)c2ccccc2o1)N1CCCCC1` is > 79 µM (inactive); for `COc1ccc(-c2cc(NC=O)c3ncc(-c4ccc(C(C)=O)cc4)n3c2)cn1` it is > 79 µM (inactive); for `O=C1N[C@H](Cc2ccccc2)COC(=O)[C@@H](Cc2ccc(F)cc2)C/C=C\C[C@H]1CC(=O)N(CCO)Cc1ccccc1` it is 20.5 µM.
Next, `CCOC(=O)C1CCN(c2cc3c(cc2NC(=O)c2ccccc2)n(C)c(=O)n3C)CC1`: > 79 µM (inactive).
Regarding `Cc1ccc2[nH]c(=O)c(CN(Cc3ccco3)S(=O)(=O)c3c(C)ccc4nsnc34)cc2c1`, the IC50 is 29.7 µM.
Consider `CC(C)n1nc(C(=O)OCC(=O)c2c[nH]c3ccccc23)c2ccccc2c1=O`, for which the IC50 was > 79 µM (inactive).
Next, `O=c1[nH]nc(-c2ccc(NCCCO)c([N+](=O)[O-])c2)c2ccccc12`: > 79 µM (inactive); `C=CCC[C@H](Cc1ccc(F)cc1)C(=O)OC[C@@H](Cc1c[nH]c2ccccc12)NC(=O)[C@@H](CC=C)CC(=O)NCCO`: > 79 µM (inactive); `Cc1cc(C)c(C(=O)CC(=O)c2ccccc2Cl)c(O)c1`: > 79 µM (inactive).
Next, `CCCN1Cc2cccc(C(N)=O)c2C1=O`: > 79 µM (inactive).
On to `COc1ccccc1OCC(=O)N/N=C/c1cccc2cccnc12`, for which the IC50 is 49.2 µM (inactive).
The figure for `O=C(C[C@@H]1C/C=C/CC[C@@H](Cc2ccc(F)cc2)C(=O)O[C@@H](c2ccccc2)CNC1=O)NCCO` is 15.1 µM.
Next, `CCOc1ccc(-n2cc(-c3ccccc3)c3c(N4CCOCC4)ncnc32)cc1`: > 79 µM (inactive).
